# Assay results reported in patent publication US20250296938A1, “Compounds that Interact with the Ras Superfamily for the Treatment of Cancers, Inflammatory Diseases, Rasopathies, and Fibrotic Disease” (SHY Therapeutics, LLC, priority 2018, published 2025).
# Test system: KRas G12C mutant
# Test: Ras GTP binding domain inhibition assay (Cy3-GTP/Cy5-GTP competition)
# Set-up: species or system human
# Details: 20 μM; with SOS (Table 7A)
# Method in brief: (§1)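 His-tagged Ras immobilized on nickel-coated wells in Tris buffer (pH 7.4 or 7.0) with 1 mM MgCl2, 1 mM DTT, 1% DMSO. Compound (20 μM, or serial dilution for IC50) incubated 3 hours at room temperature, ± Sos (residues 556-1049) in final hour. Bound 100 nM Cy3-/Cy5-GTP read after 45 minutes and washing.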
row,SMILES,KRas G12C mutant + SOS: % inh.
1,COc1cccc(-c2sc3nc(-c4nccn4C)nc(NC4CCC(OC)C4)c3c2-c2ccccc2)c1F (stereo not drawn) [drawing 883],D (76-100% inhibition)
2,COC1CCC(Nc2nc(-c3nccn3C)nc3sc(-c4cccc(O)c4F)c(-c4ccccc4)c23)C1 (stereo not drawn) [drawing 885],C (51-75% inhibition)
3,COc1c(F)cccc1-c1sc2nc(-c3nccn3C)nc(NC3CCC(OC)C3)c2c1-c1ccccc1 (stereo not drawn) [drawing 886],A (1-25% inhibition)
4,COC1CCC(Nc2nc(-c3nccn3C)nc3sc(-c4cccc5[nH]ncc45)c(-c4ccccc4)c23)C1 (stereo not drawn) [drawing 888],D (76-100% inhibition)
5,COC1CCN(c2nc(-c3nccn3C)nc3sc(-c4cccc(O)c4F)c(-c4ccccc4)c23)C1 (stereo not drawn) [drawing 890],C (51-75% inhibition)
6,COc1cccc(-c2sc3nc(-c4nccn4C)nc(N[C@H]4C[C@@H](OC)C4)c3c2-c2ccccc2)c1F [drawing 891],D (76-100% inhibition)

# Same assay, conditions: 20 μM; without SOS (Table 7A)
row,SMILES,KRas G12C mutant: % inh.
1,COc1cccc(-c2sc3nc(-c4nccn4C)nc(NC4CCC(OC)C4)c3c2-c2ccccc2)c1F (stereo not drawn) [drawing 883],B (26-50% inhibition)
2,COC1CCC(Nc2nc(-c3nccn3C)nc3sc(-c4cccc(O)c4F)c(-c4ccccc4)c23)C1 (stereo not drawn) [drawing 885],B (26-50% inhibition)
3,COc1c(F)cccc1-c1sc2nc(-c3nccn3C)nc(NC3CCC(OC)C3)c2c1-c1ccccc1 (stereo not drawn) [drawing 886],B (26-50% inhibition)
4,COC1CCC(Nc2nc(-c3nccn3C)nc3sc(-c4cccc5[nH]ncc45)c(-c4ccccc4)c23)C1 (stereo not drawn) [drawing 888],B (26-50% inhibition)
5,COC1CCN(c2nc(-c3nccn3C)nc3sc(-c4cccc(O)c4F)c(-c4ccccc4)c23)C1 (stereo not drawn) [drawing 890],A (1-25% inhibition)
6,COc1cccc(-c2sc3nc(-c4nccn4C)nc(N[C@H]4C[C@@H](OC)C4)c3c2-c2ccccc2)c1F [drawing 891],C (51-75% inhibition)

# Test system: KRas Q61H mutant
# Test: as above
# Set-up: species or system human
# Details: 20 μM; with SOS (Table 7A)
# Method in brief: as §1
row,SMILES,KRas Q61H mutant + SOS: % inh.
1,COc1cccc(-c2sc3nc(-c4nccn4C)nc(NC4CCC(OC)C4)c3c2-c2ccccc2)c1F (stereo not drawn) [drawing 883],D (76-100% inhibition)
2,COC1CCC(Nc2nc(-c3nccn3C)nc3sc(-c4cccc(O)c4F)c(-c4ccccc4)c23)C1 (stereo not drawn) [drawing 885],C (51-75% inhibition)
3,COc1c(F)cccc1-c1sc2nc(-c3nccn3C)nc(NC3CCC(OC)C3)c2c1-c1ccccc1 (stereo not drawn) [drawing 886],B (26-50% inhibition)
4,COC1CCC(Nc2nc(-c3nccn3C)nc3sc(-c4cccc5[nH]ncc45)c(-c4ccccc4)c23)C1 (stereo not drawn) [drawing 888],D (76-100% inhibition)
5,COC1CCN(c2nc(-c3nccn3C)nc3sc(-c4cccc(O)c4F)c(-c4ccccc4)c23)C1 (stereo not drawn) [drawing 890],C (51-75% inhibition)
6,COc1cccc(-c2sc3nc(-c4nccn4C)nc(N[C@H]4C[C@@H](OC)C4)c3c2-c2ccccc2)c1F [drawing 891],D (76-100% inhibition)

# Same assay, conditions: 20 μM; without SOS (Table 7A)
row,SMILES,KRas Q61H mutant: % inh.
1,COc1cccc(-c2sc3nc(-c4nccn4C)nc(NC4CCC(OC)C4)c3c2-c2ccccc2)c1F (stereo not drawn) [drawing 883],C (51-75% inhibition)
2,COC1CCC(Nc2nc(-c3nccn3C)nc3sc(-c4cccc(O)c4F)c(-c4ccccc4)c23)C1 (stereo not drawn) [drawing 885],B (26-50% inhibition)
3,COc1c(F)cccc1-c1sc2nc(-c3nccn3C)nc(NC3CCC(OC)C3)c2c1-c1ccccc1 (stereo not drawn) [drawing 886],A (1-25% inhibition)
4,COC1CCC(Nc2nc(-c3nccn3C)nc3sc(-c4cccc5[nH]ncc45)c(-c4ccccc4)c23)C1 (stereo not drawn) [drawing 888],C (51-75% inhibition)
5,COC1CCN(c2nc(-c3nccn3C)nc3sc(-c4cccc(O)c4F)c(-c4ccccc4)c23)C1 (stereo not drawn) [drawing 890],B (26-50% inhibition)
6,COc1cccc(-c2sc3nc(-c4nccn4C)nc(N[C@H]4C[C@@H](OC)C4)c3c2-c2ccccc2)c1F [drawing 891],D (76-100% inhibition)

# Test system: KRas wild type
# Test: as above
# Set-up: species or system human
# Details: 20 μM; with SOS (Table 7A)
# Method in brief: as §1
row,SMILES,KRas wild type + SOS: % inh.
1,COc1cccc(-c2sc3nc(-c4nccn4C)nc(NC4CCC(OC)C4)c3c2-c2ccccc2)c1F (stereo not drawn) [drawing 883],D (76-100% inhibition)
2,COC1CCC(Nc2nc(-c3nccn3C)nc3sc(-c4cccc(O)c4F)c(-c4ccccc4)c23)C1 (stereo not drawn) [drawing 885],C (51-75% inhibition)
3,COc1c(F)cccc1-c1sc2nc(-c3nccn3C)nc(NC3CCC(OC)C3)c2c1-c1ccccc1 (stereo not drawn) [drawing 886],A (1-25% inhibition)
4,COC1CCC(Nc2nc(-c3nccn3C)nc3sc(-c4cccc5[nH]ncc45)c(-c4ccccc4)c23)C1 (stereo not drawn) [drawing 888],D (76-100% inhibition)
5,COC1CCN(c2nc(-c3nccn3C)nc3sc(-c4cccc(O)c4F)c(-c4ccccc4)c23)C1 (stereo not drawn) [drawing 890],C (51-75% inhibition)
6,COc1cccc(-c2sc3nc(-c4nccn4C)nc(N[C@H]4C[C@@H](OC)C4)c3c2-c2ccccc2)c1F [drawing 891],D (76-100% inhibition)

# Same assay, conditions: 20 μM; without SOS (Table 7A)
row,SMILES,KRas wild type % inh.
1,COc1cccc(-c2sc3nc(-c4nccn4C)nc(NC4CCC(OC)C4)c3c2-c2ccccc2)c1F (stereo not drawn) [drawing 883],C (51-75% inhibition)
2,COC1CCC(Nc2nc(-c3nccn3C)nc3sc(-c4cccc(O)c4F)c(-c4ccccc4)c23)C1 (stereo not drawn) [drawing 885],B (26-50% inhibition)
3,COc1c(F)cccc1-c1sc2nc(-c3nccn3C)nc(NC3CCC(OC)C3)c2c1-c1ccccc1 (stereo not drawn) [drawing 886],B (26-50% inhibition)
4,COC1CCC(Nc2nc(-c3nccn3C)nc3sc(-c4cccc5[nH]ncc45)c(-c4ccccc4)c23)C1 (stereo not drawn) [drawing 888],B (26-50% inhibition)
5,COC1CCN(c2nc(-c3nccn3C)nc3sc(-c4cccc(O)c4F)c(-c4ccccc4)c23)C1 (stereo not drawn) [drawing 890],B (26-50% inhibition)
6,COc1cccc(-c2sc3nc(-c4nccn4C)nc(N[C@H]4C[C@@H](OC)C4)c3c2-c2ccccc2)c1F [drawing 891],C (51-75% inhibition)

# Target: T1, KRas G12D mutant (Homo sapiens, UniProt P01116, G12D)
# T1 construct: fused on or other part: His tag, used for capture on nickel-coated plates
# Test: as above
# Details: 20 μM; with SOS (Table 7A); read-out: KRas G12D mutant + SOS: % inh.
# Method in brief: as §1
row,SMILES,inhibition at 20 µM
1,COc1cccc(-c2sc3nc(-c4nccn4C)nc(NC4CCC(OC)C4)c3c2-c2ccccc2)c1F (stereo not drawn) [drawing 883],51 to 75%
2,COC1CCC(Nc2nc(-c3nccn3C)nc3sc(-c4cccc(O)c4F)c(-c4ccccc4)c23)C1 (stereo not drawn) [drawing 885],51 to 75%
3,COc1c(F)cccc1-c1sc2nc(-c3nccn3C)nc(NC3CCC(OC)C3)c2c1-c1ccccc1 (stereo not drawn) [drawing 886],1 to 25%
4,COC1CCC(Nc2nc(-c3nccn3C)nc3sc(-c4cccc5[nH]ncc45)c(-c4ccccc4)c23)C1 (stereo not drawn) [drawing 888],26 to 50%
5,COC1CCN(c2nc(-c3nccn3C)nc3sc(-c4cccc(O)c4F)c(-c4ccccc4)c23)C1 (stereo not drawn) [drawing 890],51 to 75%
6,COc1cccc(-c2sc3nc(-c4nccn4C)nc(N[C@H]4C[C@@H](OC)C4)c3c2-c2ccccc2)c1F [drawing 891],51 to 75%

# Same assay, conditions: 20 μM; without SOS (Table 7A); read-out: KRas G12D mutant: % inh.
row,SMILES,inhibition at 20 µM
1,COc1cccc(-c2sc3nc(-c4nccn4C)nc(NC4CCC(OC)C4)c3c2-c2ccccc2)c1F (stereo not drawn) [drawing 883],26 to 50%
2,COC1CCC(Nc2nc(-c3nccn3C)nc3sc(-c4cccc(O)c4F)c(-c4ccccc4)c23)C1 (stereo not drawn) [drawing 885],26 to 50%
3,COc1c(F)cccc1-c1sc2nc(-c3nccn3C)nc(NC3CCC(OC)C3)c2c1-c1ccccc1 (stereo not drawn) [drawing 886],1 to 25%
4,COC1CCC(Nc2nc(-c3nccn3C)nc3sc(-c4cccc5[nH]ncc45)c(-c4ccccc4)c23)C1 (stereo not drawn) [drawing 888],26 to 50%
5,COC1CCN(c2nc(-c3nccn3C)nc3sc(-c4cccc(O)c4F)c(-c4ccccc4)c23)C1 (stereo not drawn) [drawing 890],1 to 25%
6,COc1cccc(-c2sc3nc(-c4nccn4C)nc(N[C@H]4C[C@@H](OC)C4)c3c2-c2ccccc2)c1F [drawing 891],26 to 50%
